Source: patent publication US12502379B2, “Ponesimod for avoiding worsening of fatigue-related symptoms in multiple sclerosis patients” (Vanda Pharmaceuticals Inc., priority 2019, dated 2025)

Tests used:
[1] = Reasons for premature treatment discontinuation; type: in vivo; settings: ponesimod 20 mg, teriflunomide 14 mg
Procedure: A total of 1468 subjects were screened. Of those, 1133 subjects were randomized (567 to ponesimod 20 mg and 566 to teriflunomide 14 mg) across 162 sites in 28 countries, and 1131 subjects received at least one dose of study drug. The disposition of subjects is summarized in Table 1 and a summary of reasons (primary reason) for treatment discontinuation are shown in Table 2. Overall treatment and study discontinuation were balanced across both treatment arms. A total of 6.5% and 2.5% of the subjects discontinued due to AEs or tolerability related reasons in ponesimod 20 mg and teriflunomide 14 mg, respectively, while 1.9% and 4.3% discontinued due to efficacy related reasons. There were 2 deaths reported during the study—both on teriflunomide 14 mg.

[2] = ALT increase relative to ULN; type: in vivo, human; settings: ponesimod 20 mg arm, teriflunomide 14 mg arm
[3] = Treatment-emergent adverse events, Safety Set
Procedure: A prospective, multicenter, randomized, double-blind, active controlled, parallel-group, phase III, superiority study was conducted.
The Safety Set (SAF) included all randomized subjects who received at least one dose of study treatment. Subjects were analyzed based on actual treatment taken, not randomized treatment.

[4] = 12-lead ECG heart rate on Day 1, change from pre-dose; type: in vivo, human
Procedure: As per up-titration regimen, the dose of ponesimod on Day 1 is 2 mg.

[5] = test system: adult subjects with relapsing MS; experiment: FSIQ-RMS weekly symptoms score, change from baseline to Week 108; type: in vivo, human; settings: FSIQ-RMS weekly symptoms score
Excerpt: In some embodiments, the patient-reported outcome questionnaire is the Fatigue Symptoms and Impact Questionnaire—Relapsing Multiple Sclerosis (FSIQ-RMS) (available from Mapi Research Trust). The FSIQ-RMS is an MS specific 20-item PRO measure that comprises 2 domains: one measuring MS symptoms and one measuring MS-related impacts. See Hudgens S, et al., Development and Validation of the FSIQ-RMS: A New Patient-Reported Questionnaire to Assess Symptoms and Impacts of Fatigue in Relapsing Multiple Sclerosis. Value Health. 2019 April; 22 (4): 453-466. doi: 10.1016/j.jval.2018.11.007. Epub 2019 Feb. 21. PubMed PMID: 30975397. With 7 symptom items and 13 impact items (in 3 impacts subdomains: physical, cognitive and emotional, and coping), the FSIQ-RMS is a comprehensive, valid, and reliable measure of fatigue-related symptoms and impacts in RMS patients. FIG. 2B depicts a conceptual framework for the FSIQ-RMS.
(§1) In some embodiments, the patient-reported outcome questionnaire is the symptom domain of the FSIQ-RMS. The FSIQ-RMS symptom domain (FSIQ-RMS-S) consists of seven items assessing fatigue-related symptoms with a recall period of 24 hours measured on an 11-point numeric rating scale; the standardized symptom domain score ranges from 0 to 100 with a higher score indicating greater fatigue. This domain (i.e., section 1 of the questionnaire) is completed on 7 consecutive days.
The patient-reported outcome questionnaire used for the below Examples is the Fatigue Symptoms and Impact Questionnaire-Relapsing Multiple Sclerosis (FSIQ-RMS). The FSIQ-RMS is an MS specific 20-item PRO measure that comprises 2 domains: one measuring MS symptoms (7 items) and one measuring MS-related impacts (13 items). The 7 symptom items and 13 impact items (in 3 impacts subdomains: physical, cognitive and emotional, and coping) are presented below.
For the MS symptoms domain, the FSIQ-RMS asks about a patient's fatigue-related symptoms of relapsing MS over the past 24 hours while doing routine daily activities (e.g., housework, yard work, shopping, working, etc.) for Items 1-6 or while at rest (e.g., reading a book, watching TV, etc.) for Item 7. Patients are asked to select a response on a scale of Oto 10 that best describes their experience and are asked to not skip any questions, with no answers being right or wrong.
Secondary efficacy variables and testing strategy: Four secondary efficacy endpoints were analyzed as per the statistical testing strategy outlined in FIG. 1. • Change from baseline to Week 108 in fatigue-related symptoms as measured by the symptoms domain of the FSIQ-RMS patient-reported outcome [Fatigue] • Cumulative number of combined unique active lesions from baseline to Week 108 on brain MRI [CUALs] • Time to first 12-week confirmed disability accumulation (CDA) from baseline to EOS on Expanded Disability Status Scale (EDSS) [12-week CDA] • Time to first 24-week CDA from baseline to EOS on EDSS [24-week CDA]
as §1, with “The” for “In some embodiments, the patient-reported outcome questionnaire is the symptom domain of the FSIQ-RMS. The”
FSIQ-RMS was completed during the pre-randomization period, at Visits 6, 7, 10, and 12 (Weeks 12, 24, 60, 84), 14 (EOT), and at unscheduled visits due to relapses (R1, R2, etc.) or other unscheduled visits (U1, U2, etc.) as described below. If applicable, FSIQ-RMS was performed at the corresponding visits in the PTOP.
The completion of the FSIQ-RMS during the pre-randomization period was done as follows: At Visit 1 (Screening), subjects who appear eligible based on the assessments made during this visit (but prior to the results from the laboratory assessments are received) were provided with the electronic device containing the FSIQ-RMS. […]

[6] = other S1P receptor modulators, for comparison; cited from earlier work
[7] = Day 1 (ponesimod dose 2 mg per up-titration), Safety Set, N = 565 / 566
[8] = Safety Set, ponesimod 20 mg N = 565, teriflunomide 14 mg N = 566
[9] = ponesimod 20 mg, teriflunomide 14 mg
[10] = patients without Gd+T1 lesions at baseline

Compound: C/C(O)=C(\C#N)C(=O)Nc1ccc(C(F)(F)F)cc1 [Teriflunomide]
- Subjects who discontinued due to AEs or tolerability related reasons [1]: 2.5%
- Proportion of subjects who experienced ALT increase >3×ULN [2]: 8.3%
- Proportion of subjects who experienced ALT increase >8×ULN [2]: 2.1%
- AESI effect on heart rate and rhythm (including hypotension) on Day 1: Subjects with at least one AE [3, 7]: 0.4%
- AESI heart rate and rhythm on Day 1, PT: Atrioventricular block first degree [3, 7]: 0 n
- AESI heart rate and rhythm on Day 1, PT: Bradycardia [3, 7]: 0 n
- AESI heart rate and rhythm on Day 1, PT: Bundle branch block left [3, 7]: 0 n
- AESI heart rate and rhythm on Day 1, PT: Bundle branch block right [3, 7]: 0 n
- AESI heart rate and rhythm on Day 1, PT: Defect conduction intraventricular [3, 7]: 0 n
- AESI heart rate and rhythm on Day 1, PT: Sinus arrhythmia [3, 7]: 0 n
- AESI heart rate and rhythm on Day 1, PT: Sinus bradycardia [3, 7]: 0 n
- Subject with at least one AE (treatment-emergent) [3, 8]: 88.2%
- Subject with at least one AE leading to study drug discontinuation [3, 8]: 6.0%
- Subject with at least one Serious AE [3, 8]: 8.1%
- TEAEs leading to premature discontinuation of study drug, SOC: Eye disorders [3, 8]: 0 n
- TEAEs leading to premature discontinuation of study drug, SOC: Respiratory, thoracic and mediastinal disorders [3, 8]: 0 n
- TEAEs leading to premature discontinuation of study drug, SOC: Vascular disorders [3, 8]: 0 n
- Treatment-emergent AESI: Hepatobiliary disorders/Liver enzyme abnormality [3, 8]: 14.5%
- Treatment-emergent AESI: Hypertension [3, 8]: 9.0%
- Treatment-emergent AESI: Pulmonary events [3, 8]: 2.7%
- TEAE: ALT increased [3, 9]: 9.4%
- TEAE: headache [3, 9]: 12.7%
- TEAE: nasopharyngitis [3, 9]: 16.8%
- TEAE: upper respiratory tract infection [3, 9]: 10.4%
- Mean heart rate reduction compared to pre-dose (maximum) ([4]; Day 1, 2-hours post dose, ponesimod arm dose on Day 1 is 2 mg): −1.7 bpm
- Subjects with asymptomatic post-dose HR≤40 bpm ([4]; Day 1, all had pre-treatment HR<55 bpm): none
- Change From Baseline to Week 108: Stable or Improved ([5]; patients with baseline fatigue below the median): about 55%
- Change From Baseline to Week 108: Stable or Improved [5, 10]: 57.0%
- Change From Baseline to Week 108: Worsened (≥6.3) [5, 10]: 43.0%
- Change From Baseline to Week 108: Stable or Improved ([5]; patients without Gd+T1 lesions at baseline, listed as teriflunomide): about 57%

Compound: CCCCCCCCc1ccc(CCC(N)(CO)CO)cc1 [fingolimod]
- ECG HR effect: nadir post-dose [6]: ~6 h

Compound: CCc1cc(/C(C)=N/OCc2ccc(C3CCCCC3)c(C(F)(F)F)c2)ccc1CN1CC(C(=O)O)C1 [siponimod]
- ECG HR effect: nadir post-dose [6]: 3 to 4 h
